In patent publication US7049443B2, “Amide-containing compound having improved solubility and method of improving the solubility of an amide-containing compound” (Pharmacia & Upjohn Company, priority 2001, dated 2006):
Several values for one entry are separate records, joined by “and”; a condition that tells them apart may be missing. Identical values can stand only once.

| SMILES | melting point |
| --- | --- |
| CCCNC(=O)[C@H]1CN(c2ccc(N3CCOCC3)c(F)c2)C(=O)O1 [Example 438, (5R)-(−)-3-[3-Fluoro-4-(4-morpholinyl)phenyl]-N-propyl-2-oxo-5-oxazolidinecarboxamide] | 165 to 167 °C |
| NC(=O)[C@H]1CN(c2ccc(C3CCOCC3)c(F)c2)C(=O)O1 [Example 444, (5R)-(−)-3-[4-(Tetrahydro-2H-pyran-4-yl)-3-fluorophenyl]-2-oxo-5-oxazolidinecarboxamide] | 153 to 156 °C |
| NC(=O)[C@H]1CN(c2ccc(C3=CCS(=O)(=O)CC3)c(F)c2)C(=O)O1 [Example 446, (5R)-(−)-3-[4-(3,6-Dihydro-2H-thiopyran-4-yl)-3-fluorophenyl]-2-oxo-5-oxazolidinecarboxamide S,S-dioxide] | 206 to 208 °C |
| NC(=O)[C@H]1CN(c2ccc([C@H]3CC[S@@+]([O-])CC3)cc2)C(=O)O1 [Example 459, (5R)-3-[4-(cis-tetrahydro-1-oxido-2H-thiopyran-4-yl)phenyl]-2-oxo-S-oxazolidinecarboxamide] | 269 to 273 °C (dec.) |
| NC(=O)[C@H]1CN(c2ccc(N3CCN(C(=O)CO)CC3)c(F)c2)C(=O)O1 [Example 448, (5R)-(−)-3-[3-Fluoro-4-[4-(hydroxyacetyl)-1-piperazinyl]phenyl]-2-oxo-5-oxazolidinecarboxamide] | 232 to 235 °C (dec.) |
| NC(=O)[C@H]1CN(c2ccc(N3CC[S+]([O-])CC3)c(F)c2)C(=O)O1 [Example 454, (5R)-(−)-3-[3-Fluoro-4-(thiomorpholin-4-yl)phenyl]-2-oxo-5-oxazolidinecarboxamide S-oxide] | 264 to 266 °C (dec.) |
| NC(=O)[C@H]1CN(c2cc(F)c(N3CC[S+]([O-])CC3)c(F)c2)C(=O)O1 [Example 455, (5R)-(−)-3-[3,5-Difluoro-4-(thiomorpholin-4-yl)phenyl]-2-oxo-5-oxazolidinecarboxamide S-oxide] | 273 to 276 °C (dec.) |
| CONC(=O)[C@H]1CN(c2ccc(N3CCOCC3)c(F)c2)C(=O)O1 [Example 439, (5R)-(−)-3-[3-Fluoro-4-(4-morpholinyl)phenyl]-N-methoxy-2-oxo-5-oxazolidinecarboxamide] | 206 to 208 °C (dec.) |
| NC(=O)[C@H]1CN(c2ccc(C3=CC[S+]([O-])CC3)c(F)c2)C(=O)O1 (stereo partly drawn) [Example 445, (5R)-3-[4-(3,6-Dihydro-2H-thiopyran-4-yl)-3-fluorophenyl]-2-oxo-5-oxazolidinecarboxamide S-oxide] | 182 to 184 °C (dec.) |
| NC(=O)[C@H]1CN(c2ccc(N3CCOCC3)c(F)c2)C(=O)O1 [Example 435, (5R)-(−)-3-[3-Fluoro-4-(4-morpholinyl)phenyl]-2-oxo-5-oxazolidinecarboxamide] | 185 to 187 °C (dec.) |
| NC(=O)[C@H]1CN(c2ccc(-c3cccnc3)c(F)c2)C(=O)O1 [Example 441, (5R)-(−)-3-[4-(3-Pyridyl)-3-fluorophenyl]-2-oxo-5-oxazolidinecarboxamide] | 240 to 242 °C (dec.) |
| NC(=O)[C@H]1CN(c2ccc([C@H]3CC[S@+]([O-])CC3)cc2)C(=O)O1 (racemic) [Example 460, (SR)-3-[4-(trans-tetrahydro-1-oxido-2H-thiopyran-4-yl)phenyl]-2-oxo-5-oxazolidinecarboxamide] | 174 to 175 °C |
| NC(=O)[C@H]1CN(c2ccc(N3CCS(=O)(=O)CC3)c(F)c2)C(=O)O1 [Example 453, (5R)-(−)-3-[3-Fluoro-4-(thiomorpholin-4-yl)phenyl]-2-oxo-5-oxazolidinecarboxamide S,S-dioxide] | 245 to 247 °C (dec.) |
| NC(=O)[C@H]1CN(c2ccc([C@H]3CC[S@+]([O-])CC3)c(F)c2)C(=O)O1 [Example 457, (5R)-3-[3-Fluoro-4-(trans-tetrahydro-1-oxido-2H-thiopyran-4-yl)phenyl]-2-oxo-5-oxazolidinecarboxamide] | 201 to 203 °C |
| O=C(NO)[C@H]1CN(c2ccc(N3CCOCC3)c(F)c2)C(=O)O1 [Example 440, (5R)-(−)-3-[3-Fluoro-4-(4-morpholinyl)phenyl]-N-hydroxy-2-oxo-5-oxazolidinecarboxamide] | 141 to 143 °C |
| NC(=O)[C@H]1CN(c2cc(F)c(N3CCS(=O)(=O)CC3)c(F)c2)C(=O)O1 [Example 449, (5R)-(−)-3-[4-(Thiomorpholin-4-yl)-3,5-difluorophenyl]-2-oxo-5-oxazolidinecarboxamide S,S-dioxide] | 245 to 248 °C (dec.) |
| CNC(=O)[C@H]1CN(c2ccc(N3CCOCC3)c(F)c2)C(=O)O1 [Example 436, (5R)-(−)-3-[3-Fluoro-4-(4-morpholinyl)phenyl]-N-methyl-2-oxo-5-oxazolidinecarboxamide] | 182 to 183 °C (dec.) |
| NC(=O)[C@H]1CN(c2cc(F)c(N3CCOCC3)c(F)c2)C(=O)O1 [Example 451, (5R)-(−)-3-[3,5-Difluoro-4-(4-morpholinyl)phenyl]-2-oxo-5-oxazolidinecarboxamide] | 181 to 183 °C |
| NC(=O)[C@H]1CN(c2ccc(C3CCS(=O)(=O)CC3)c(F)c2)C(=O)O1 [Example 447, (5R)-(−)-3-[4-(Tetrahydro-2H-thiopyran-4-yl)-3-fluorophenyl]-2-oxo-5-oxazolidinecarboxamide S,S-dioxide] | 231 to 234 °C (dec.) and 229 to 231 °C (dec.) |
| C=CCNC(=O)[C@H]1CN(c2ccc(N3CCOCC3)c(F)c2)C(=O)O1 [Example 437, (5R)-(−)-3-[3-Fluoro-4-(4-morpholinyl)phenyl]-N-allyl-2-oxo-5-oxazolidinecarboxamide] | 167 to 169 °C |
| NC(=O)[C@H]1CN(c2ccc(-c3ccncc3)c(F)c2)C(=O)O1 [Example 442, (5R)-(−)-3-[4-(4-Pyridyl)-3-fluorophenyl]-2-oxo-5-oxazolidinecarboxamide] | 256 to 259 °C (dec.) |
| NC(=O)[C@H]1CN(c2ccc(C3=CCOCC3)c(F)c2)C(=O)O1 [Example 443, (5R)-(−)-3-[4-(3,6-Dihydro-2H-pyran-4-yl)-3-fluorophenyl]-2-oxo-5-oxazolidinecarboxamide] | 164 to 169 °C |
| NC(=O)[C@H]1CN(c2ccc([C@H]3CC[S@@+]([O-])CC3)c(F)c2)C(=O)O1 (racemic) [Example 456, (SR)-3-[3-Fluoro-4-(cis-tetrahydro-1-oxido-2H-thiopyran-4-yl)phenyl]-2-oxo-5-oxazolidinecarboxamide] | 279 to 281 °C (dec.) |
| NC(=O)[C@H]1CN(c2ccc(N3CCS(=O)(=O)CC3)cc2)C(=O)O1 [Example 452, (5R)-(−)-3-[4-(Thiomorpholin-4-yl)phenyl]-2-oxo-5-oxazolidinecarboxamide S,S-dioxide] | 226 to 228 °C |
| NC(=O)[C@H]1CN(c2ccc(C3CCS(=O)(=O)CC3)cc2)C(=O)O1 [Example 458, (5R)-(−)-3-[4-(tetrahydro-2H-thiopyran-4-yl)phenyl]-2-oxo-5-oxazolidinecarboxamide S,S-dioxide] | 211 to 212 °C |
